Results on 3 compounds are retold here after patent US4443436A, “C-20-Modified macrolide derivatives of the macrolide antibiotics tylosin, desmycosin, macrocin, and lactenocin” (Eli Lilly and Company, priority 1982, dated 1984).

The structures appear in SMILES notation. Converted amounts (≈) assume the structure as drawn. Read-outs that look alike come from different tables or passages of the source.

Test [1] has as its system Staphylococcus aureus X1.1. Kind of test: MIC, standard agar-dilution assay, Staphylococcus aureus X1.1. The test is classed as cell-based.
The test system of test [2] is Staphylococcus aureus V41. Nature of the test: MIC, standard agar-dilution assay, Staphylococcus aureus V41. The test is classed as cell-based.
Test [3] deals with Staphylococcus aureus X400. Kind of test: MIC, standard agar-dilution assay, Staphylococcus aureus X400. The test is classed as cell-based.
Test [4] concerns Staphylococcus aureus S13E. Kind of test: MIC, standard agar-dilution assay, Staphylococcus aureus S13E. Format: cell-based.
Test [5] deals with Staphylococcus epidermidis EPI1. Kind of test: MIC, standard agar-dilution assay, Staphylococcus epidermidis EPI1. The test is classed as cell-based.
Test [6] concerns Staphylococcus epidermidis EPI2. Nature of the test: MIC, standard agar-dilution assay, Staphylococcus epidermidis EPI2. The test is classed as cell-based.
Test [7] deals with Streptococcus pyogenes C203. Kind of test: MIC, standard agar-dilution assay, Streptococcus pyogenes C203. Format: cell-based.
Test [8] has as its system Streptococcus Group D X66. Nature of the test: MIC, standard agar-dilution assay, Streptococcus Group D X66. Format: cell-based. The following applies: Streptococcus Group D X66, agar dilution.
The next test relates to Streptococcus Group 9960. Nature of the test: MIC, standard agar-dilution assay, Streptococcus Group 9960. The test is classed as cell-based. The settings on record: Streptococcus Group 9960, agar dilution. (In general: Agar dilution tests growth on a series of plates holding different concentrations.)
The test system of test [9] is Haemophilus influenzae Holt. Kind of test: MIC, standard agar-dilution assay, Haemophilus influenzae Holt. Format: cell-based. The settings on record: Haemophilus influenzae Holt; ampicillin-sensitive strain; agar dilution.
In test [10] the test system is Haemophilus influenzae R252. Kind of test: MIC, standard agar-dilution assay, Haemophilus influenzae R252. Format: cell-based.
In a further test the test system is Staphylococcus aureus. Kind of test: MIC, broth-dilution microtiter test, Staphylococcus aureus. Format: cell-based. An excerpt: (§1) The MIC's in Table X were obtained using conventional broth-dilution microtiter tests.
A further test deals with Streptococcus bovis 80. Kind of test: MIC, broth-dilution microtiter test, Streptococcus bovis 80. Format: cell-based.
Description: as §1

Test [11] deals with Pasteurella multocida 17E. Kind of test: MIC, broth-dilution microtiter test, Pasteurella multocida 17E. Format: cell-based. The settings on record: Pasteurella multocida 17E, bovine isolate, broth-dilution microtiter.
Description: as §1

In test [12] the test system is Pasteurella multocida 60A. Nature of the test: MIC, broth-dilution microtiter test, Pasteurella multocida 60A. The test is classed as cell-based. The settings on record: Pasteurella multocida 60A, avian isolate, broth-dilution microtiter.
Description: as §1

Test [13] has as its system Pasteurella hemolytica 22C. Nature of the test: MIC, broth-dilution microtiter test, Pasteurella hemolytica 22C. Format: cell-based. The following applies: Pasteurella hemolytica 22C, broth-dilution microtiter.
Description: as §1

A further test has as its system Mycoplasma gallisepticum. Kind of test: MIC, broth-dilution microtiter test, Mycoplasma gallisepticum. Format: cell-based.
Description: as §1

The subject of the next test is Mycoplasma synoviae. Kind of test: MIC, broth-dilution microtiter test, Mycoplasma synoviae. The test is classed as cell-based.
Description: as §1

In another test the test system is Mycoplasma hyorhinis. Kind of test: MIC, broth-dilution microtiter test, Mycoplasma hyorhinis. Format: cell-based.
Description: as §1

Test [14] deals with Streptococcus pyogenes C203. Nature of the test: In vivo protection of mice experimentally infected with S. pyogenes C203. The settings on record: mice, doses given 1 and 4 hours post-infection; for ED50: Streptococcus pyogenes. The protocol: The C-20 modified derivatives of this invention have shown in vivo antimicrobial activity against experimentally-induced infections in laboratory animals. When two doses of test compound were administered to mice experimentally infected with S. pyogenes C203, the activity observed was measured as an ED50 value [effective dose in mg/kg to protect 50% of the test animals: see Warren Wick, et al., J. Bacteriol. 81, 233-235 (1961)].

Test [15] relates to Streptococcus pneumoniae Park I. Kind of test: microbe, parasite or virus in culture. Format: cell-based. The following applies: Streptococcus pneumoniae.
Setting [16] is: Staphylococcus epidermidis, EPI1.
[17] abbreviates: Staphylococcus epidermidis, EPI2.
[18] abbreviates: C203, sc, subcutaneous, read-out: ED50, Subcutaneous.
The mark [19] stands for this setting: C203, oral, read-out: ED50, Oral.

With `CCC1OC(=O)CC(O)C(C)C(OC2OC(C)C(O)C(N(C)C)C2O)C(CCOc2ccc(CN3CCCCCC3)cc2)CC(C)C(=O)C=CC(C)=CC1COC1OC(C)C(O)C(OC)C1OC` (stereo not shown) [Compound 42, 20-DH-20-O-[p-(Hexahydroazepin-1-ylmethyl)phenyl]desmycosin], the MIC in test [1] (Staphylococcus aureus X1.1, agar dilution) was found to be 0.5 µg/mL (≈ 0.52 µM); in [2] (Staphylococcus aureus V41, penicillin-resistant strain, agar dilution), 0.1 µg/mL (≈ 0.104 µM); in test [3] (Staphylococcus aureus X400, methicillin-resistant strain, agar dilution) it was 1 µg/mL (≈ 1.04 µM); in test [4] (Staphylococcus aureus S13E, agar dilution), 0.5 µg/mL (≈ 0.52 µM); in test [5] (Staphylococcus epidermidis EPI1, agar dilution) it was 0.5 µg/mL (≈ 0.52 µM); in test [6] (Staphylococcus epidermidis EPI2, agar dilution), 0.25 µg/mL (≈ 0.26 µM). Further, the MIC in test [7] (Streptococcus pyogenes C203, agar dilution) was determined as 0.5 µg/mL (≈ 0.52 µM); in test [8], 8 µg/mL (≈ 8.32 µM); with Streptococcus Group 9960 it was 8 µg/mL (≈ 8.32 µM); in [9] it was 32 µg/mL (≈ 33.3 µM); in test [10] (Haemophilus influenzae R252, ampicillin-resistant strain, agar dilution), 32 µg/mL (≈ 33.3 µM); against Staphylococcus aureus (broth-dilution microtiter), 1.56 µg/mL (≈ 1.62 µM). The MIC against Streptococcus bovis 80 (Streptococcus bovis 80, broth-dilution microtiter) was 3.12 µg/mL (≈ 3.25 µM); in test [11], 12.5 µg/mL (≈ 13 µM); in test [12], 12.5 µg/mL (≈ 13 µM); in test [13], 12.5 µg/mL (≈ 13 µM); in the test with Mycoplasma gallisepticum (Mycoplasma gallisepticum, broth-dilution microtiter), 0.39 µg/mL (≈ 0.406 µM); in the test with Mycoplasma synoviae (Mycoplasma synoviae, broth-dilution microtiter), 0.195 µg/mL (≈ 0.203 µM). Besides, in the test with Mycoplasma hyorhinis (Mycoplasma hyorhinis, broth-dilution microtiter), the MIC was 25 µg/mL (≈ 26 µM). Also, in test [14] (oral), the “ED50, Oral” value was over 100 mg/kg × 2. Further, the “ED50, Subcutaneous” value in test [14] (subcutaneous) is on record as over 25 mg/kg × 2.

As for `CCC1OC(=O)CC(O)C(C)C(OC2OC(C)C(O)C(N(C)C)C2O)C(CCI)CC(C)C(=O)C=CC(C)=CC1COC1OC(C)C(O)C(O)C1OC` (stereo not shown) [Compound 57, 20-DH-DO-20-Iodolactenocin], the MIC amounted to 0.5 µg/mL (≈ 0.575 µM) in [1] (Staphylococcus aureus, X1.1); 0.5 µg/mL (≈ 0.575 µM) in [2] (Staphylococcus aureus, V41); 1 µg/mL (≈ 1.15 µM) in test [3] (Staphylococcus aureus, X400); 0.5 µg/mL (≈ 0.575 µM) in [4] (Staphylococcus aureus, S13E); 0.5 µg/mL (≈ 0.575 µM) in test [5] (setting [16]); 0.5 µg/mL (≈ 0.575 µM) in [6] (setting [17]). In addition, the MIC in test [7] (Streptococcus pyogenes, C203) came out at 0.5 µg/mL (≈ 0.575 µM); in test [15], 4 µg/mL (≈ 4.6 µM); in [8] (read-out: MIC) it was 16 µg/mL (≈ 18.4 µM); with Streptococcus Group 9960 (GROUP9960, read-out: MIC), 16 µg/mL (≈ 18.4 µM); against Staphylococcus aureus it was 0.78 µg/mL (≈ 0.897 µM); in the test on Streptococcus bovis 80 (Streptococcus equinus, 80), 3.12 µg/mL (≈ 3.59 µM). The MIC in test [11] (read-out: MIC) came out at 25 µg/mL (≈ 28.7 µM); in test [12] (read-out: MIC) it was 25 µg/mL (≈ 28.7 µM); in test [13] (read-out: MIC) it was 25 µg/mL (≈ 28.7 µM); in the test with Mycoplasma gallisepticum (Mycoplasmoides gallisepticum), 3.12 µg/mL (≈ 3.59 µM); against Mycoplasma synoviae (Mycoplasmopsis synoviae), 1.56 µg/mL (≈ 1.79 µM); against Mycoplasma hyorhinis (Mycoplasma), 50 µg/mL (≈ 57.5 µM). For the same compound, the ED50 (in general, the midpoint of the dose-response relation) was 5.2 mg/kg in [14] (setting [18]) and 79 mg/kg in [14] (setting [19]).

Consider `CCC1CC(C)C(=O)C=CC(C)=CC(COC2OC(C)C(O)C(O)C2OC)C(CC)OC(=O)CC(O)C(C)C1OC1OC(C)C(O)C(N(C)C)C1O` (stereo not shown) [Compound 60, 20-DH-DO-Lactenocin], for which the MIC in test [1] (Staphylococcus aureus, X1.1) came out at 0.25 µg/mL (≈ 0.336 µM); in [2] (Staphylococcus aureus, V41), 0.25 µg/mL (≈ 0.336 µM); in test [3] (Staphylococcus aureus, X400), 0.5 µg/mL (≈ 0.672 µM); in test [4] (Staphylococcus aureus, S13E), 0.25 µg/mL (≈ 0.336 µM); in test [5] (setting [16]), 0.25 µg/mL (≈ 0.336 µM); in test [6] (setting [17]), 0.25 µg/mL (≈ 0.336 µM). Also, the MIC in [15] was 0.5 µg/mL (≈ 0.672 µM); in [8] (read-out: MIC) it was 8 µg/mL (≈ 10.8 µM); in the test on Streptococcus Group 9960 (GROUP9960, read-out: MIC), 8 µg/mL (≈ 10.8 µM); in [10] (Haemophilus influenzae, R252), 16 µg/mL (≈ 21.5 µM); in the test on Staphylococcus aureus, 0.78 µg/mL (≈ 1.05 µM); in the test on Streptococcus bovis 80 (Streptococcus equinus, Streptococcus bovis 80, broth-dilution microtiter, read-out: MIC), 6.25 µg/mL (≈ 8.4 µM). Further, the MIC in test [11] (read-out: MIC) is 25 µg/mL (≈ 33.6 µM); in [12] (read-out: MIC), 25 µg/mL (≈ 33.6 µM); in [13] (read-out: MIC), 25 µg/mL (≈ 33.6 µM); with Mycoplasma gallisepticum (Mycoplasmoides gallisepticum) it was 1.56 µg/mL (≈ 2.1 µM); in the test with Mycoplasma synoviae (Mycoplasmopsis synoviae, Mycoplasma synoviae, broth-dilution microtiter, read-out: MIC), over 50 µg/mL; against Mycoplasma hyorhinis (Mycoplasma), 50 µg/mL (≈ 67.2 µM). Also, the ED50 in [14] (setting [18]) was determined as 3.9 mg/kg; in test [14] (setting [19]) it was 46 mg/kg.
